Paper PMC9084902, “Low-Molecular Weight Protamine Overcomes Chondroitin Sulfate Inhibition of Neural Regeneration” (Frontiers in Cell and Developmental Biology, 2022)
“Also recorded” adds a separate entry of the source.

Assays:
[1] = test system: hippocampal neurons; test: cell toxicity seen in neuronal morphology / neuronal cells in vitro; type: cell-based, Wistar rat; settings: neuronal systems, Figures 2, 4
Experimental: (§1) The cortex or hippocampus were obtained from 17 days-old Wistar rat embryos and transferred to ice-cold preparation solution. Neurons were further isolated exactly as described earlier in Sahu’s publication ([Sahu et al., 2019]). Primary rat cortical or hippocampal neurons (E17 Wistar rats) were cultured in 96-well plates at the density of 20000 cells/well in Neurobasal medium supplemented with B27 serum substitute, penicillin, streptomycin and L-glutamate for 2 days in vitro (DIV). The plates were precoated with aggrecan (5 ug/ml, 150 µl/well). Protamine or protamine peptides were added to the culture medium at different concentrations. To analyze the effect of protamine or its fragment on neurite outgrowth, the plates were coated with 10 μg/ml of protamine or LMWP. For the experiment with chondroitinase, the aggrecan-coated plates were treated with chondroitinase ABC (Amsbio AMS. E1028, lot CF0029) for 4 h followed by 2 times washing with PBS before cell plating, and the cell culture imaging was carried out after 3 DIV incubation with 4 uM LMWP added to the medium. Neurite outgrowth was imaged with phase contrast microscopy (Olympus IX70 microscope and Retiga 2000R digital camera) using both x10 and x20 objectives. Processes of neurons over the diameter of the neuronal soma were interpreted as neurites. Neurite length was measured with ImageJ software and averaged from 2 to 3 independent experiments with 1–2 technical replicas in each independent experiment.

[2] = test system: cortical neurons; test: neurite outgrowth on aggrecan substrate, cortical neurons; type: cell-based, Wistar rat
Experimental: as §1, with “Processes of neurons over the diameter of the neuronal soma were interpreted as neurites.” left out

[3] = test system: PTPσ ectodomain binding to aggrecan; test: solid phase binding of wild-type PTPσ ectodomain to aggrecan, competition by LMWP
Description: The N-terminal extracellular part of PTPσ (protein tyrosine phosphatase sigma; PTPRS) that contains the three Ig domains (amino acids 1-321) and mediates CSPG binding ([Shen et al., 2009]) was cloned using the PTPσ cDNA kindly provided by Dr. John Flanagan (Harvard University). The PTPσ mutant lacking the CS binding site in the Ig1 domain was produced as described ([Shen et al., 2009]). The recombinants were produced as Fc-tagged proteins in 293T HEK cells and purified on protein A Sepharose.
The competition assay for LMWP in binding of PTPσ to aggrecan was done in a similar way as earlier ([Paveliev et al., 2016]). Briefly, after overnight coating with 10 μg/ml aggrecan (150 ul/well) at 4°C 96-well tissue culture plates (Nunc) were washed two times with 0.05% Tween-20 in PBS and were blocked for 1 h at room temperature with 1%BSA and 0.05% Tween-20 in PBS. The recombinant wild type PTPσ ectodomain or the mutated ectodomain lacking CS binding (80 nM) were mixed with different concentrations of LMWP in 1% BSA and 0.05% Tween-20 in PBS, and were incubated in the plates overnight at 4°C. After washing with 0.05% Tween20 (3 times, room temperature), the wells were incubated for 1 h (room temperature) with HRP conjugated goat anti-human FC part of IgG (1:5000, in 1% BSA and 0.05% Tween20 PBS) to detect the bound PTPσ. […]

[4] = test system: mouse cervical hemisection model; test: cylinder test, C5 hemisection, ICV delivery; type: in vivo, C57BL6/NHsd mouse; settings: n = 5–10
Experimental: (§2) The mouse was placed into the glass cylinder of 13 cm in diameter and 15 cm high. A mirror was positioned at the angle behind the cylinder for better observation. The mouse was videotaped for the first 20 exploratory vertical rearings or for 5 min. The number of rearings in which the mouse used the right (impaired), the left or both limbs for support against the wall was measured. Paw preference was calculated as the ratio of total number of left limb use (left + both) to total number of right (impaired) limb use (right + both). A trial with less than 5 rearings within 5 min was excluded from the analysis.

[5] = test system: mouse cervical hemicontusion model; test: cylinder test, C5 hemicontusion, ICV delivery; type: in vivo, C57BL6/NHsd mouse; settings: ICV LMWP; weeks 4, 6 and 8; n = 6–11
Experimental: as §2

[6] = test system: mouse cervical hemicontusion model; test: vertical screen (climbing) test, C5 hemicontusion, subcutaneous delivery; type: in vivo, C57BL6/NHsd mouse; settings: 16 µg s.c. daily 49 days; n = 7–13
Experimental: (§3) The effectiveness of systemically delivered LMWP in treatment of spinal cord trauma was tested in the cervical hemicontusion model (Figure 1B). Baseline behavior was assessed 1 week before the trauma surgery, and the results were used for balanced distribution of animals to the 3 experimental groups (“sham”, “trauma + PBS” and “trauma + LMWP”). Each housing cage contained animals from all three groups. Subcutaneous injections to the back area were started on the next day after the trauma and continued daily for 49 days. LMWP was injected subcutaneously at the 16 µg dose in 200 µl of sterile PBS. The groups “sham” and “trauma + PBS” got the same volume of PBS. Behavioral assessment was started 2 weeks after the trauma and finished at the week 12.
The mouse was placed on the brink of a horizontal wire screen (25 × 22 cm, diameter of wires 2 mm spaced at 1 cm) faced to edge. Immediately after that the screen was turned vertically to place the mouse to the upside down position at the lower edge. The time that the animal needed to climb to the upper edge was measured during 1 min. If the animal was not able to climb up or fell down from the screen the maximum time 60 s was marked as the climbing time. The average parameter of three subsequent trials repeated with at least 1 min interval was used for data analysis.

[7] = test system: mouse cervical hemicontusion model; test: cylinder test, C5 hemicontusion, subcutaneous delivery; type: in vivo, C57BL6/NHsd mouse; settings: 16 µg s.c. daily 49 days; n = 7–13; difference not statistically significant
Experimental: as §3, §2

[8] = test system: mouse cervical hemicontusion model; test: frontpaw grip strength, C5 hemicontusion, subcutaneous delivery; type: in vivo, C57BL6/NHsd mouse; settings: 16 µg s.c. daily 49 days
Experimental: as §3

[9] = cited from earlier work
Description: We therefore tested protamine fragments that might be nontoxic but would still retain the ability to overcome the CSPG inhibition. […] This fragment is found in the literature as the low-molecular weight protamine (LMWP) with the capability to penetrate through the cell membranes and to carry drug cargoes to tissues including ...

[10] = ICV LMWP 4 µl of 1 mg/ml daily, 6 days from day 3

VSRRRRRRGGRRRR [LMWP, low-molecular weight protamine]
toxicity for neuronal cells (summary) [1]: little if any toxicity even at high concentrations
stimulation of neurite outgrowth versus 0 μg/ml ([2]; LMWP in medium at 1.75 µM (3.3 μg/ml), p = 0.0319, n = 6, Figure 5A): ~6 times
stimulation of neurite outgrowth versus 0 μg/ml ([2]; LMWP in medium at 3.5 µM (6.6 μg/ml), p < 0.0001, n = 6, Figure 5A): more than 20 times
inhibition of PTPσ binding to aggrecan ([3]; 80 nM PTPσ-Fc, 10 μg/ml aggrecan coating, increasing LMWP, overnight 4°C, HRP anti-Fc/OPD 492 nm, n = 3, Figure 5C): progressively decreased by increasing LMWP concentrations; also recorded: clearly inhibited PTPσ binding to aggrecan in a similar manner as HB-GAM
similarity of LMWP to mutated PTPσ in binding suppression ([3]; aggrecan substrate, increasing LMWP concentrations): mimicked the binding suppression effect seen with the mutated PTPσ
front paw use asymmetry (injured versus non-injured side) [4, 10]: reduction of front paw use asymmetry at the weeks 2, 4, 8 and 9 after the trauma; also recorded: less asymmetry in frontpaw use when the injured side was compared to the non-injured side
ipsilateral paw use [4, 10]: partially improved the ipsilateral paw use
ipsilateral paw use versus sham ([4]; ICV LMWP, week 2 p = 0.4201, week 4 p = 0.2766, week 8 p = 0.1092, week 9 p = 0.1659, PBS group differed from sham at all weeks): not significantly different from the sham animals
ipsilateral front paw use versus sham [5]: reduction in front paw use asymmetry starting from the week 4 after the trauma; also recorded: not significantly different from the sham group on the weeks 4, 6 and 8 after the trauma
climbing test recovery versus PBS [6]: tendency for better recovery in the LMWP group compared to the PBS group
front paw use asymmetry versus PBS [7]: tendency for better improvement of the LMWP group compared to the PBS group although the difference was not statistically significant
grip strength versus PBS ([8]; week 6 p = 0.0449, week 9 p = 0.0221, one-way ANOVA with Tukey's): significantly increased grip strength parameters on the week 6 and the week 12; also recorded: significant increase of frontpaw grip strength in comparison with the PBS-treated animals on the weeks 6 and 9
grip strength versus PBS, week 12 ([8]; week 12 p = 0.0558, one-way ANOVA with Tukey's): trend towards increased grip strength on the week 12
blood-brain barrier passage [9]: reported to pass the blood-brain barrier
cell membrane penetration and cargo delivery to tissues including the brain [9]: capability to penetrate through the cell membranes and to carry drug cargoes to tissues including the brain
toxicity relative to protamine ([9]; ref Byun et al., 2000, He et al., 2014, Edwards et al., 2020): non-toxic substitute of protamine
